Measured values from paper PMC6655611, “The effect of amantadine on an ion channel protein from Chikungunya virus” (PLoS Neglected Tropical Diseases, 2019).

B1: GST-6K (fusion of Chikungunya virus 6K with Glutathione S Transferase) (natural protein)
chain: ATYYEAAAYLWNEQQPLFWLQALIPLAALIVLCNCLKLLPCCCKTLAFLAVMSIGAHTVSA
notes: Monomer MW printed as 33.5 kDa; The GST tag was not removed; also called CHIKV 6K; recombinant GST-6K; not shown: GST, N-terminal, kept

Columns and labels:
CHIKV 6K (GST-6K) = target: T1, CHIKV 6K (GST-6K) (Chikungunya virus strain Senegal 37997, UniProt Q5XXP3); experiment: planar lipid bilayer electrophysiology; also liposome dye release and DLS fusion assay; type: biochemical; details: 1 uM amantadine; 2.6 ng/ul GST-6K in DPhPC/cholesterol bilayer, 500 mM KCl, 5 mM MgCl2, 10 mM HEPES pH 7.4, 24-25 C, -70 and +70 mV; direct binding not measured
T1 construct: mature 6K cut from structural polyprotein C-E3-E2-6K-E1; N-terminal GST tag kept (pGEX-6P2), E. coli Rosetta pLysS

SEC = target: the molecule itself; experiment: SEC

Row | Molecule | planar lipid bilayer electrophysiology; also liposome dye release and DLS fusion (CHIKV 6K (GST-6K)) | stoichiometry N (SEC)
1 | NC12CC3CC(CC(C3)C1)C2 [amantadine] | This clearly indicates that amantadine abolishes the ion channel activity of CHIKV 6K | –
2 | B1 | – | 6
